# ChEMBL document CHEMBL1201862, “PubChem BioAssay data set” (2004)
# The source made the active and inactive calls.
# Experiments:
# [1] = target: Lysine-specific demethylase 4C (Homo sapiens, UniProt Q9H3R0); assay: GASC-1 (JMJD2C) histone demethylase inhibitors, dose response, biochemical, DELFIA europium, cherry-picked samples (AID 488835); format: functional
# [2] = tested on: Vero; assay: cells; format: functional, cell-based; details: Chlorocebus sabaeus
# [3] = tested on: Vero; assay: cells; format: functional; details: Chlorocebus sabaeus
# [4] = target: FAD-linked sulfhydryl oxidase ALR (Homo sapiens, UniProt P55789); assay: inhibitors of human ALR sulfhydryl oxidase, dose response, biochemical, H2O2 detection, luminescence, cherry-pick (AID 493248)
# FAD-linked sulfhydryl oxidase ALR, sequence (P55789 whole entry): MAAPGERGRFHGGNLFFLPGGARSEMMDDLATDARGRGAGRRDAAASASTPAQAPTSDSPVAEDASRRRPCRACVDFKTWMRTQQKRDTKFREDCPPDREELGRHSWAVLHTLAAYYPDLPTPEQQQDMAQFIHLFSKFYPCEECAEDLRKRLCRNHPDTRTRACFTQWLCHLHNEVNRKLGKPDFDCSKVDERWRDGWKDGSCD
# [5] = target: Dual specificity protein kinase CLK1 (Homo sapiens, UniProt P49759); assay: CLK1 kinase inhibitors, off-target check, dose response, selectivity assay for Dyrk1A inhibitor project, biochemical, cherry-picked samples (AID 588811)
# Dual specificity protein kinase CLK1, sequence (P49759 whole entry): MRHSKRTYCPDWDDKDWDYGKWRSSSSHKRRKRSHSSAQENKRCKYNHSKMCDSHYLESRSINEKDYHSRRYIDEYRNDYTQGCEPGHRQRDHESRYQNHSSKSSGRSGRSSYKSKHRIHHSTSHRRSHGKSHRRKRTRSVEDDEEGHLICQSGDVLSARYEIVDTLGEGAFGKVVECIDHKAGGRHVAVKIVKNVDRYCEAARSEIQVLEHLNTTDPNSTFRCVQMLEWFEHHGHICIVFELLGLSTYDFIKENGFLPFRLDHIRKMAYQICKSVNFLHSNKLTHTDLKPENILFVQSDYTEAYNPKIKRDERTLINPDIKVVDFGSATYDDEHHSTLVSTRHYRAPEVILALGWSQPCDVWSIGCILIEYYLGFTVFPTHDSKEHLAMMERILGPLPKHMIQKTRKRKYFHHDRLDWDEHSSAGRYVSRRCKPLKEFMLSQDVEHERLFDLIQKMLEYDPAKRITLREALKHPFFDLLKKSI
# [6] = target: Dual specificity tyrosine-phosphorylation-regulated kinase 1A (Rattus norvegicus, UniProt Q63470); format: biochemical, Homo sapiens
# [7] = target: Delta-type opioid receptor (Homo sapiens, UniProt P41143); assay: Counterscreen for agonists of heterodimerization of the mu 1 (OPRM1) and delta 1 (OPRD1) opioid receptors: Luminescence-based cell-based high throughput dose response assay to identify agonists of OPRD1 homodimerization. [Related pubchem assays (depositor defined):AID504326, AID504355, AID504692, AID504904, AID504905]; format: functional
# Delta-type opioid receptor, sequence (P41143 whole entry): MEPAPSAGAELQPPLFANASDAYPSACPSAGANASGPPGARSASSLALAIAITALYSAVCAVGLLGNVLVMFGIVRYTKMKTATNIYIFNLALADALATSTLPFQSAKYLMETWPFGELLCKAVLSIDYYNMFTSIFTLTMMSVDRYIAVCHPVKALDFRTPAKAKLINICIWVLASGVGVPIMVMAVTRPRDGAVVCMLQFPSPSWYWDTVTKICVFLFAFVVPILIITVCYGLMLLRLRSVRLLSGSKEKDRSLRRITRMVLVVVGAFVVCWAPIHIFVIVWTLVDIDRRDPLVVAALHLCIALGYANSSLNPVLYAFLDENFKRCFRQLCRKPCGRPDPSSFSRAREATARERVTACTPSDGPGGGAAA
# [8] = target: Mu-type opioid receptor (Homo sapiens, UniProt P35372); assay: Counterscreen for agonists of heterodimerization of the mu 1 (OPRM1) and delta 1 (OPRD1) opioid receptors: Luminescence-based cell-based high throughput dose response assay to identify agonists of OPRM1 homodimerization.; format: functional;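 note: U2OS cells expressing OPRM1 and beta-arrestin as split beta-galactosidase partners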
# Mu-type opioid receptor, sequence (P35372 whole entry): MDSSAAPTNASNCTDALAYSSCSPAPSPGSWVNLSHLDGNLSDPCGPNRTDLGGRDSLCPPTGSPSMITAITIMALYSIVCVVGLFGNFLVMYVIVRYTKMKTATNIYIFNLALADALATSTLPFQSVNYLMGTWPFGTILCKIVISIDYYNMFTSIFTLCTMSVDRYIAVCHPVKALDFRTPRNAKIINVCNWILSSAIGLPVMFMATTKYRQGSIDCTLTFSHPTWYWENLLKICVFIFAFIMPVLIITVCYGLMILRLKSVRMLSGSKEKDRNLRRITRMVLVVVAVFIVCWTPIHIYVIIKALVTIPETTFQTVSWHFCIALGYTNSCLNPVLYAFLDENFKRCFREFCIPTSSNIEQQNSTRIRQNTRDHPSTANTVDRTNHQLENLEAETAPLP
# [9] = target: 5-hydroxytryptamine receptor 5A (Homo sapiens, UniProt P47898); assay: Counterscreen for agonists of OPRM1-OPRD1 heterodimerization: luminescence-based cell-based high throughput dose response assay to identify agonists of 5-hydroxytryptamine (serotonin) 5A receptor (HTR5A). [Related pubchem assays (depositor defined):AID504326, AID504355, AID504692, AID504904, AID504905]; format: functional
# 5-hydroxytryptamine receptor 5A, sequence (P47898 whole entry): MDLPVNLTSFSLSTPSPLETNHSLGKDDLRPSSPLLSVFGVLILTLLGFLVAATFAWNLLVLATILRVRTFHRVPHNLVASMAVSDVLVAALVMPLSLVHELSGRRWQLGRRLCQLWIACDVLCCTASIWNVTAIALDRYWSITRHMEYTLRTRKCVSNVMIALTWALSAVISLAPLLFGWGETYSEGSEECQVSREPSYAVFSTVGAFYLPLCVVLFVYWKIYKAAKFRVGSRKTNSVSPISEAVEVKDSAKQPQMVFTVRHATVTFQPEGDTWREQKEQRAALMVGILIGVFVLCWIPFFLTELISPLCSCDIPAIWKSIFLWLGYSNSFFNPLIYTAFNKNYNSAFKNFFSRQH
# [10] = tested on: HeLa; assay: HeLa cell cytotoxicity, dose response, cytotoxicity control for MITF activator project, CellTiter-Glo luminescence, cherry-pick samples (AID 540259); format: functional, cell-based; details: Homo sapiens
# [11] = target: T1, Protein skinhead-1 (Caenorhabditis elegans, UniProt P34707); format: functional
# T1 sequence (P34707 whole entry): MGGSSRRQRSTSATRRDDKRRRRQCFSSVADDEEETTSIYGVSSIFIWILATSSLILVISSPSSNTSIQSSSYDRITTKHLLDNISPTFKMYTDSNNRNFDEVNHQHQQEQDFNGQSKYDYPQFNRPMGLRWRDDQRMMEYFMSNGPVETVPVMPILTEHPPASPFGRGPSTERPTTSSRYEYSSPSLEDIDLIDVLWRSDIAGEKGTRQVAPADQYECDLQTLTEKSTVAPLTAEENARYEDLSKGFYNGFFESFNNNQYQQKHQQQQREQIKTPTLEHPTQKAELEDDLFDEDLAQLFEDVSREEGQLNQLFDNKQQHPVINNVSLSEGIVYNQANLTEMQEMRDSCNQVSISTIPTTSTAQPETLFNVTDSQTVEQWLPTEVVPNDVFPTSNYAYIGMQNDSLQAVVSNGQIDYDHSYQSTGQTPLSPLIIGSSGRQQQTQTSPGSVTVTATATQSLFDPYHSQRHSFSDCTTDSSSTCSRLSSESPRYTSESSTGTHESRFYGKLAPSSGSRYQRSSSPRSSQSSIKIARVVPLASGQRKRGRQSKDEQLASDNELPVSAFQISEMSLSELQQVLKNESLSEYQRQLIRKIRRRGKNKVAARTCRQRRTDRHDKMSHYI
# [12] = tested on: INS1; assay: protection of INS-1E cells from cytokine death, dose response, ATP luminescence, dry powder (AID 488844); format: functional, cell-based; details: Rattus norvegicus
# [13] = target: T2, Phospholipase D1 (Homo sapiens, UniProt Q13393); assay: PLD1 inhibitor potency in cells, dose response (AID 602151); format: functional;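 note: cellular PLD1 assay in Calu-1 cells stimulated with PMA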
# T2 sequence (Q13393 whole entry): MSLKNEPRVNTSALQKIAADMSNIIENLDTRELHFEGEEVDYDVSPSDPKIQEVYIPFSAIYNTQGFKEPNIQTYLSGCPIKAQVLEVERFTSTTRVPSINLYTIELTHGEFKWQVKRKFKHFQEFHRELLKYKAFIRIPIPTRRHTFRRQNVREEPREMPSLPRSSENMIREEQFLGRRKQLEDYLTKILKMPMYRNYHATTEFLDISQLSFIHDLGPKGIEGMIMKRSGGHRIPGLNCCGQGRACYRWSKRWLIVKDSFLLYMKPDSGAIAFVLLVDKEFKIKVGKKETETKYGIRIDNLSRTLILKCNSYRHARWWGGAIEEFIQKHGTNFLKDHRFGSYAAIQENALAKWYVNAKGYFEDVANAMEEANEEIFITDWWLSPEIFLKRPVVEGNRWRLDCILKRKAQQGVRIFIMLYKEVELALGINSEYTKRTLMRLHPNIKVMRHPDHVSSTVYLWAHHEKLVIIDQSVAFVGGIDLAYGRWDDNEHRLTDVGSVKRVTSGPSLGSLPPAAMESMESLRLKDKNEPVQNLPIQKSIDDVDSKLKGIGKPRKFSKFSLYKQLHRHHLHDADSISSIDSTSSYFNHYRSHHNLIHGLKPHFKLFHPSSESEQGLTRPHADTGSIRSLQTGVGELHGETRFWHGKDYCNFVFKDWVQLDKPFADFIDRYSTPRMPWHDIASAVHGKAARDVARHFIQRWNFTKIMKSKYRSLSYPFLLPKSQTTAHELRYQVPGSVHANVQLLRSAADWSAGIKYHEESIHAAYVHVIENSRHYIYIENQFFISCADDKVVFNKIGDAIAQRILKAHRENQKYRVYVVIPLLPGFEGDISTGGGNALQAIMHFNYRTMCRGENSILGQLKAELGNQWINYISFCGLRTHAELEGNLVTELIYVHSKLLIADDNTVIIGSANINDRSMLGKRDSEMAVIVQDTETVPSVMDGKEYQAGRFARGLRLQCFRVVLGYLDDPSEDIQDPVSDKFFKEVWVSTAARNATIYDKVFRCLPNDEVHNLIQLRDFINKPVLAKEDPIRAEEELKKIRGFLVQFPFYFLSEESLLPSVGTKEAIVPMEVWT
# [14] = target: Phospholipase D2 (Homo sapiens, UniProt O14939); assay: PLD2 inhibitor potency in cells, dose response (AID 602147); format: functional;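 note: cellular assay in HEK293 cells overexpressing GFP-tagged PLD2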
# [15] = target: T3, Dual specificity protein phosphatase 3 (Homo sapiens, UniProt P51452); assay: VHR1 phosphatase inhibitors, primary screen, biochemical, absorbance, uHTS (AID 1654)
# T3 sequence (P51452 whole entry): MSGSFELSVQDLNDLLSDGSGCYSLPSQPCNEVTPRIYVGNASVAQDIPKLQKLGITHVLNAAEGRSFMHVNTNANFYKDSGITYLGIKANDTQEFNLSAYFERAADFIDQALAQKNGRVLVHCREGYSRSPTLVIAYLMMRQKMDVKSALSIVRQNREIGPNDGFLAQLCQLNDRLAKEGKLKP
# [16] = target: T3, Dual specificity protein phosphatase 3; assay: VHR1 phosphatase inhibitors, biochemical (AID 1878)
# [17] = target: T4, Dual specificity protein phosphatase 6 (Rattus norvegicus, UniProt Q64346); assay: MKP-3 phosphatase inhibitors, primary screen, biochemical, rat enzyme, in vitro (AID 425)
# T4 sequence (Q64346 whole entry): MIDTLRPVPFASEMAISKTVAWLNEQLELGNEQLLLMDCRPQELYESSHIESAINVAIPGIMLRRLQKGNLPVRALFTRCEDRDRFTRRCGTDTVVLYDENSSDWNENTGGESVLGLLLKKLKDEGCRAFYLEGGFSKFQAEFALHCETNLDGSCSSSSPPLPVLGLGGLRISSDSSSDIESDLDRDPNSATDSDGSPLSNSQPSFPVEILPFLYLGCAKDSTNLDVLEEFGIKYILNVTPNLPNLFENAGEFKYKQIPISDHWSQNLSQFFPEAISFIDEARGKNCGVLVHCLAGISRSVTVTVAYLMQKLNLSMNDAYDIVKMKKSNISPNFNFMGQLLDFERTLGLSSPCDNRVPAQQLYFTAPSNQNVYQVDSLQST
# [18] = target: Intestinal-type alkaline phosphatase (Mus musculus, UniProt P24822); assay: PubChem AID 488785; format: functional
# Intestinal-type alkaline phosphatase (Mus musculus, UniProt P24822), sequence (P24822 whole entry): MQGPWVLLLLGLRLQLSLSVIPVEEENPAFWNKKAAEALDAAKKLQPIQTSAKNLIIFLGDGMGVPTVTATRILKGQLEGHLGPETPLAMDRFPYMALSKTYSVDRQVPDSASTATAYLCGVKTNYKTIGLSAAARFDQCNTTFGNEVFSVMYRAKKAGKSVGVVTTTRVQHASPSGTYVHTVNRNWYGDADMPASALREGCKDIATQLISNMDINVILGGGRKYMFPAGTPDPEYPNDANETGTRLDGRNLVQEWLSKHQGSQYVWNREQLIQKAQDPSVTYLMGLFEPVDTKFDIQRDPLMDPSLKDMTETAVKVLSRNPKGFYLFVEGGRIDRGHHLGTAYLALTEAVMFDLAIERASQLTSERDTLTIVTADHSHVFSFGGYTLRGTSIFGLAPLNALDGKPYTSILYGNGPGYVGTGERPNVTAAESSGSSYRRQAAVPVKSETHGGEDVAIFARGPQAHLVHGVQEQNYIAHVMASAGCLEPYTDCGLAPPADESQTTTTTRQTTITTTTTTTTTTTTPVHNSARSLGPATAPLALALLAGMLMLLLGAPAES
# [19] = target: T5, Alkaline phosphatase, tissue-nonspecific isozyme (Homo sapiens, UniProt P05186); assay: TNAP enzyme inhibition by screening hits, dose response, selectivity assay for mouse IAP inhibitor project, biochemical, human TNAP, uHTS hits (AID 488906); format: functional
# T5 sequence (P05186 whole entry): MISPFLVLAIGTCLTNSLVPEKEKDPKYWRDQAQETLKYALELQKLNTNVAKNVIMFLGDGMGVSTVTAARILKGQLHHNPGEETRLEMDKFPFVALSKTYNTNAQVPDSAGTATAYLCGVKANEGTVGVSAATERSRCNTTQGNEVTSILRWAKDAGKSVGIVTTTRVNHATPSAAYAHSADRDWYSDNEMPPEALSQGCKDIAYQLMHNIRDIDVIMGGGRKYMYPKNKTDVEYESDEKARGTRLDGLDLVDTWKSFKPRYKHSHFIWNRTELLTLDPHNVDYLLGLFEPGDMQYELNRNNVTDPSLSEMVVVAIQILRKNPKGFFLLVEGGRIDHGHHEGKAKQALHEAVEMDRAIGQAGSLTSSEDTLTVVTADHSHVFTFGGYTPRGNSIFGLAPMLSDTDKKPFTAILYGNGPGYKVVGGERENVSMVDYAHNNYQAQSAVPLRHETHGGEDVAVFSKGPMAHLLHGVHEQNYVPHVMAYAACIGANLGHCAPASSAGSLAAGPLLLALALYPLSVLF
# [20] = target: Intestinal-type alkaline phosphatase (Homo sapiens, UniProt P09923); assay: inhibition of human intestinal alkaline phosphatase – biochemical, dose response (AID 488876); format: functional
# Intestinal-type alkaline phosphatase (Homo sapiens, UniProt P09923), sequence (P09923 whole entry): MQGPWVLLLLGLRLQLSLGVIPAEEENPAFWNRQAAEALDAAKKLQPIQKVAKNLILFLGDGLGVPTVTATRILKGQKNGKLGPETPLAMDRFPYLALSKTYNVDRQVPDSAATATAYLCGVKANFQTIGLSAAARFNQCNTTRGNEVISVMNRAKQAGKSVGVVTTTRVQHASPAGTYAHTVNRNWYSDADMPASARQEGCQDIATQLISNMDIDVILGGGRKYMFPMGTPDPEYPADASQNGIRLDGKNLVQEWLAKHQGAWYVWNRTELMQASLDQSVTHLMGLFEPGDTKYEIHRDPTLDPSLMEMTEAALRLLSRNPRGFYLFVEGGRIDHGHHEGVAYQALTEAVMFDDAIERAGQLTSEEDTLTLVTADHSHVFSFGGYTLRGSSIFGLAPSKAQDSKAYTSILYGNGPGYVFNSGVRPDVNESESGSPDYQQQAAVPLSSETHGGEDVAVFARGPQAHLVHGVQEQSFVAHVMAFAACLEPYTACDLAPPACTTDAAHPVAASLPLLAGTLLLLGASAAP
# [21] = target: DNA (cytosine-5)-methyltransferase 1 (Homo sapiens, UniProt P26358); assay: DNMT1 methyltransferase inhibitors, confirmation, biochemical, fluorescent molecular beacon (AID 602386); format: functional
# [22] = target: T6, Small ubiquitin-related modifier 2 (Homo sapiens, UniProt P61956); assay: SUMO2–SIM peptide binding inhibitors, dose response, selectivity assay for SUMO1 interaction inhibitor project, biochemical, fluorescence polarization, uHTS hits (AID 624385); format: functional; details: read-out: IC50_Mean
# T6 sequence (P61956 whole entry): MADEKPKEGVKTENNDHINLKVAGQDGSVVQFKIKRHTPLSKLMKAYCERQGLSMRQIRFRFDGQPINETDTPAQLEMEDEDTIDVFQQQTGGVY
# [23] = target: T7, Small ubiquitin-related modifier 1 (Homo sapiens, UniProt P63165); assay: inhibitors of SUMO1 peptide binding, dose response, biochemical, fluorescence polarization, uHTS hits (AID 624382); format: functional; details: read-out: IC50_Mean
# T7 sequence (P63165 whole entry): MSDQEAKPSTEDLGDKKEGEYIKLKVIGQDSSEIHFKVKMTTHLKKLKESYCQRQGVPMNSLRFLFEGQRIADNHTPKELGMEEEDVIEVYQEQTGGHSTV
# [24] = target: T6, Small ubiquitin-related modifier 2; assay: inhibitors of SUMO2 protein-protein interaction, dose response, selectivity assay for SUMO1 interaction inhibitor project, biochemical, FRET, human SUMO2, uHTS hits (AID 624384); format: functional; details: read-out: IC50_Mean
# [25] = target: T7, Small ubiquitin-related modifier 1; assay: inhibitors of SUMO1 partner interactions, dose response, biochemical, FRET (AID 624383); format: functional; details: read-out: IC50_Mean
# [26] = target: Albumin (Bos taurus, UniProt P02769); assay: Counterscreen for inhibitors of T-cell receptor (TCR)-CD3 interaction: Fluorescence-based biochemical high throughput dose response assay to identify inhibitors of T-cell receptor (TCR)-CD3 interaction using a TAMRA-labeled BSA probe.; format: functional
# [27] = target: T8, Caspase-6 (Homo sapiens, UniProt P55212); assay: human caspase-6 inhibitors, dose response, biochemical, VEID-R110 fluorescence, cherry-pick (AID 720632)
# T8 sequence (P55212 whole entry): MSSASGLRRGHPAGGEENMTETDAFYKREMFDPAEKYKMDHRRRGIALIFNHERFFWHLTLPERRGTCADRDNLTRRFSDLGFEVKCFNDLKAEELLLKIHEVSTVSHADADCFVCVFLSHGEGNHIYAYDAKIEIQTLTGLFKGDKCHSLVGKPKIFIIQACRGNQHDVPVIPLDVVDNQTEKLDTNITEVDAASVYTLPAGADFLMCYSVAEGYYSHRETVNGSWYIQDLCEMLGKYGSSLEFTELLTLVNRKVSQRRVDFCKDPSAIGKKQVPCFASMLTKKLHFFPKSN
# [28] = THP-1 cell cytotoxicity, dose response, cytotoxicity control for Vif-APOBEC3G degradation inhibitor project, THP-1 cells (AID 1117359); format: functional; details: Human immunodeficiency virus 1, THP-1
# Lysine-specific demethylase 4C, sequence (Q9H3R0 whole entry): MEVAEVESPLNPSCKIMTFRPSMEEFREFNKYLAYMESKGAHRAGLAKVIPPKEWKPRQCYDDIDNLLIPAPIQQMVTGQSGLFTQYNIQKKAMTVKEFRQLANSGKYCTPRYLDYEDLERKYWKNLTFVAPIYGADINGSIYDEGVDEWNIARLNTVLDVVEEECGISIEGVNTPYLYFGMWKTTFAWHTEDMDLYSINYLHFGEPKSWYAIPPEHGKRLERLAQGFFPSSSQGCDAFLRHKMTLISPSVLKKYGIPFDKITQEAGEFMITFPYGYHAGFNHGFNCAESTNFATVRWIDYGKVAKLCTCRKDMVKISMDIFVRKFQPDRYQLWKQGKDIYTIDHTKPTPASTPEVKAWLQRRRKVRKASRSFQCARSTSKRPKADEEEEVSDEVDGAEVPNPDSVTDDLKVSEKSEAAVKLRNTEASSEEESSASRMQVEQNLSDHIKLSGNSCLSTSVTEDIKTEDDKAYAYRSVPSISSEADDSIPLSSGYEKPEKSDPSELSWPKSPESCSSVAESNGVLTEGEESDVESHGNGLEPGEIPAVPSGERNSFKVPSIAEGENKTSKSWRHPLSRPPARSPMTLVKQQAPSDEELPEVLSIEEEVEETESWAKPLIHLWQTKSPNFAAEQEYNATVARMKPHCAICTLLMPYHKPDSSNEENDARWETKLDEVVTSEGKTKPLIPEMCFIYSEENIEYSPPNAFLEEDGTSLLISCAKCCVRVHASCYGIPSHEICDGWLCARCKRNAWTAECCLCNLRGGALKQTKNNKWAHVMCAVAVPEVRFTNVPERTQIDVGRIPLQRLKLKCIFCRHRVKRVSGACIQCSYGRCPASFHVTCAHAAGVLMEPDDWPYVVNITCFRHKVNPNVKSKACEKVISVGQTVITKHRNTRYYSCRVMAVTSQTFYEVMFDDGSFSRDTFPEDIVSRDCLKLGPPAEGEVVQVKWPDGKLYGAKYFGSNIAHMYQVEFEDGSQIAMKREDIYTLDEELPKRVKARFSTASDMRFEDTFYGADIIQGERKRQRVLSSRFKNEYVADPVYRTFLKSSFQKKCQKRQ
structure (smiles),measurement,setting,value
CCOc1ccc(N2C(=O)CC(N(O)c3ccccc3)C2=O)cc1 (stereo not drawn),AC50,[1],12.7 µM (active)
COc1cccc(/C=C/C(=O)c2ccc3c(c2)OCO3)c1OC,IC50,[2],> 25 µM (active)
same,CC50,[3],> 25 µM (active)
N#C/C(=C\c1c(Oc2ccccc2Cl)nc2ccccn2c1=O)C(=O)NC1CCS(=O)(=O)C1 (stereo not drawn),IC50,[2],> 25 µM (active)
O=C(Nc1nc2c(s1)CCCC2)c1ccc(N2C(=O)CCC2=O)cc1,AC50,[4],1.11 µM (active)
same,AC50,[5],7.74 µM (active)
same,AC50,[6],5.26 µM (active)
CCc1ccc(NC(=O)N(CCCN2CCOCC2)Cc2cccs2)cc1,EC50,[7],> 92.5 µM (inactive)
same,EC50,[8],> 92.5 µM (inactive)
same,EC50,[9],> 92.5 µM (inactive)
CN(N=O)c1ccc(CC2CCc3ccccc32)cc1 (stereo not drawn),AC50,[10],79.8 µM (active)
same,IC50,[11],58.5 µM (inactive)
CC(=O)Nc1ccc(S(=O)(=O)/N=C2\C(=O)c3ccccc3C(O)=C2N2CCN(Cc3ccccc3)CC2)cc1,EC50,[7],> 92.5 µM (inactive)
same,EC50,[8],> 92.5 µM (inactive)
same,EC50,[9],> 92.5 µM (inactive)
COc1ccc(S(=O)(=O)N(C)C[C@H]2Oc3c(NC(=O)Nc4cccc5ccccc45)cccc3C(=O)N([C@H](C)CO)C[C@H]2C)cc1,AC50,[12],41.5 µM (active)
C[C@@H](CN1CCC2(CC1)C(=O)NCN2c1ccc(F)c(F)c1)NC(=O)c1ccc(Cl)cc1,IC50,[13],31 nM (active)
same,IC50,[14],125 nM (active)
c1cc(-c2ccc3c(c2)OCO3)nc(Nc2ccc3c(c2)OCO3)n1,AC50,[5],2.04 µM (active)
O=C(N/N=C/c1cn(Cc2cccc(F)c2)c2ccccc12)c1cc(O)cc(O)c1,IC50,[15],4.76 µM (active)
same,IC50,[16],2.08 µM (active)
same,IC50,[17],74.4 µM (active)
same,IC50,[18],2.7 µM (active)
same,IC50,[19],> 100 µM (inactive)
same,IC50,[20],> 100 µM (inactive)
same,IC50,[21],2.39 µM (active)
same,IC50,[22],50.6 µM (inactive)
same,IC50,[23],10.3 µM (active)
same,IC50,[24],2.49 µM (active)
same,IC50,[25],6.82 µM (active)
same,IC50,[26],> 94.1 µM (inactive)
same,AC50,[27],461 nM (active)
same,CC50,[28],> 40 µM (active)
